Source: the NIST ThermoML archive (doi:10.1016/j.fluid.2009.11.030)

Assay: excess molar enthalpy (molar enthalpy of mixing); xn = mol fraction of the nth substance listed
Conditions: 101.3 kPa, Liquid, Isothermal microcalorimeter

CCOC(=O)CC(=O)OCC [diethyl 1,3-propanedioate] + CCCCCO
excess molar enthalpy [kcal/mol]
Conditions | 288.15 K | 298.15 K | 313.15 K | 328.15 K | 338.15 K | 348.15 K
x1 = 0.0494 | – | 0.146 | – | – | – | –
x1 = 0.0583 | 0.153 | – | 0.179 | 0.171 | 0.185 | 0.195
x1 = 0.1007 | 0.235 | 0.258 | 0.282 | 0.292 | 0.294 | 0.301
x1 = 0.1478 | 0.31 | 0.338 | 0.387 | 0.391 | 0.3934 | 0.3987
x1 = 0.2 | 0.3731 | 0.4132 | 0.4584 | 0.4859 | 0.4897 | 0.49
x1 = 0.2474 | 0.4204 | 0.4646 | 0.5196 | 0.5471 | 0.5504 | 0.5566
x1 = 0.3001 | 0.4622 | 0.5153 | 0.5793 | 0.6047 | 0.6154 | 0.6068
x1 = 0.3474 | 0.4885 | 0.5428 | 0.6142 | 0.6424 | 0.6482 | 0.6441
x1 = 0.4003 | 0.512 | 0.5712 | 0.6389 | 0.6666 | 0.6707 | 0.6764
x1 = 0.4472 | 0.5203 | 0.5844 | 0.6465 | 0.6793 | 0.68 | 0.6816
x1 = 0.4997 | 0.5284 | 0.5896 | 0.6467 | 0.6819 | 0.6826 | 0.6781
x1 = 0.55 | 0.528 | 0.5815 | 0.6405 | 0.669 | 0.6692 | 0.6656
x1 = 0.5975 | 0.516 | 0.5674 | 0.6209 | 0.6456 | 0.6439 | 0.6405
x1 = 0.6466 | 0.4945 | 0.543 | 0.5906 | 0.6121 | 0.5973 | 0.5992
x1 = 0.6973 | 0.4653 | 0.5067 | 0.5447 | 0.5609 | 0.5569 | 0.5497
x1 = 0.7497 | 0.4199 | 0.4572 | 0.4857 | 0.4974 | 0.4919 | 0.4826
x1 = 0.7988 | 0.3709 | 0.3982 | 0.4185 | 0.4235 | 0.4218 | 0.407
x1 = 0.8494 | 0.3 | 0.3198 | 0.332 | 0.334 | 0.331 | 0.315
x1 = 0.9017 | 0.212 | 0.223 | 0.226 | 0.232 | 0.224 | 0.217
x1 = 0.9501 | 0.11 | 0.12 | 0.121 | 0.121 | 0.114 | 0.109
